Test results as given in patent publication US10793576B2, “Compound used as Bruton's tyrosine kinase inhibitor and preparation method and application thereof” (Chengdu Brilliant Pharmaceutical Co., LTD., priority 2017, dated 2020).

Columns and labels:
DOHH2 cells = assay: Cell proliferation inhibition in vitro, DOHH2 cells by CTG assay; assay type: cell-based; details: Homo sapiens, DOHH-2, 72 hours, read-out: Inhibitions of cell activities IC50 (nM) DOHH2
Description: (§1) Test Example 2: Determination of the Inhibition of Cell Proliferation Inhibitory Activity in
(§2) vitro of compounds using different cell lines
(§3) 2: Preparation of the Compounds:
(§4) The compounds to be tested were diluted with DMSO to prepare a mother liquor at a final concentration of 10 mM for later use.
3.2 Test of DOHH2 Cells by CTG Assay
(§5) Logarithmic growth phase cells were collected, counted and resuspended in complete medium. The cell concentration was adjusted to a suitable concentration (determined according to the cell density optimization test results), and seeded to 96-well plate and 100 μl of the cell suspension was added to each well. The cells were incubated in an incubator at 37° C., 100% relative humidity and 5% C02 for 24 hours.
The compounds to be tested were diluted with the medium to the set corresponding action concentration, and the cells were added at 10 µl/well. The cells were incubated in an incubator set at 37° C., 100% relative humidity and 5% C02 for 72 hours.
The medium was aspirated and discarded, and 30 μl of test reagent was added. The plate was gentle shaken away from the light to lyse the cells.
(§6) As: OA of the sample (cell+test reagent+test compound)
(§7) Ac: OA of the negative control (cell+test reagent+DMSO)
(§8) Ab: OA of the positive control (medium+test reagent+DMSO)
(§9) IC50 curve fitting was performed using the software Graphpad Prism 5 or XLfit and IC50 values were calculated.

TMD8 cells = assay: Cell proliferation inhibition in vitro, TMD8 cells by CCK-8 method; assay type: cell-based; details: Homo sapiens, 72 hours, read-out: Inhibitions of cell activities IC50 (nM) TMD8
Description: as §1, §2, §3, §4
(§10) 3.1. Test of TMD8 and OCI-ly10 Cells by CCK-8 Method
as §5
(§11) The compounds to be tested were diluted with the medium to the set corresponding action concentration, and the cells were added at 25 µl/well. The cells were incubated in an incubator at 37° C., 100% relative humidity and 5% C02 for 72 hours.
(§12) The medium was aspirated and discarded, and a complete medium containing 10% of the test reagent was added and the obtained system was incubated in a 37° C. incubator for 1 hour-4 hours.
as §6, §7, §8, §9

OCI-LY10 cells = assay: Cell proliferation inhibition in vitro, OCI-ly10 cells by CCK-8 method; assay type: cell-based; details: Homo sapiens, 72 hours, read-out: Inhibitions of cell activities IC50 (nM) OCI-LY10
Description: as §1, §2, §3, §4, §10, §5, §11, §12, §6, §7, §8, §9

BTK kinase = BTK kinase (Homo sapiens (Human), UniProt Q06187); assay: In vitro assay for the inhibition of BTK kinase activity (Mobility-Shift Assay); assay type: biochemical
Excerpt: Mobility-Shift Assay, which is microfluidic chip technology, applies the basic concept of capillary electrophoresis to microfluidic environments. The substrate used for the experiment is a polypeptide with a fluorescent label. Under the action of enzyme in the reaction system, the substrate is transformed into a product, and the charge the substrate carries also changes accordingly. The use of the charge difference between the substrate and the product involved in Mobility-Shift Assay achieves the separating of the two, and they are tested respectively. The test results are expressed by conversion rates.
(3) 100% DMSO was added to the positive control well and the negative control well, respectively;

Chain of BTK kinase (Q06187 whole entry): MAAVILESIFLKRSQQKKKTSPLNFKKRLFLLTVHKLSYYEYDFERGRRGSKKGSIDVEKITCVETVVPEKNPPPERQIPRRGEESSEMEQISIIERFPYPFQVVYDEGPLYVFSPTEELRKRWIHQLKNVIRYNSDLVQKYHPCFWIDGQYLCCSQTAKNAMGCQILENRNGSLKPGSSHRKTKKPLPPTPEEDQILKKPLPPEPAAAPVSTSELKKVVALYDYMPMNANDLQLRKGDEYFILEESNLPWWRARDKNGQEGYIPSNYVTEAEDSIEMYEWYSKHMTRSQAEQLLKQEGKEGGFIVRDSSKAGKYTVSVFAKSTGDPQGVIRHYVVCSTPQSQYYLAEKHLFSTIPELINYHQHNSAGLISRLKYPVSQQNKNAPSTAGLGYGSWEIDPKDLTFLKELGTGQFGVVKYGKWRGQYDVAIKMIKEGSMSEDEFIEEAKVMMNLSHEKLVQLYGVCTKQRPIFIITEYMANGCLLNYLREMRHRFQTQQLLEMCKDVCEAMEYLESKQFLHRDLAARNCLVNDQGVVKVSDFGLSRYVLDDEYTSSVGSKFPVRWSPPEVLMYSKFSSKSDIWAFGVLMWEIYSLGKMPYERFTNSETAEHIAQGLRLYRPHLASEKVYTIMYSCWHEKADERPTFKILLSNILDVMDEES

Row | SMILES | IC50 (OCI-LY10 cells) [nM] | IC50 (BTK kinase) [nM] | IC50 (DOHH2 cells) [nM] | IC50 (TMD8 cells) [nM]
1 | C=CC(=O)N1CC2CCCC2C1c1nc(-c2ccc(C(=O)Nc3cc(Cl)ccn3)cc2)c2c(N)nccn12 (stereo not drawn) [Example 68] | 4.4 | 5.3 | 172 | 3.2
2 | C=CC(=O)N1C[C@H]2[C@@H]([C@H]1c1nc(-c3ccc(C(=O)Nc4cc(Cl)ccn4)cc3)c3c(N)nccn13)C2(C)C [Example 69] | 0.74 | 1.4 | 124 | 0.62
3 | CC#CC(=O)N1CC2(CC2)C[C@H]1c1nc(-c2ccc(C(C)(O)c3ccccc3)cc2)c2c(N)nccn12 (stereo partly drawn) [Example 73, 1-((6S)-6-(8-amino-1-(4-(1-hydroxy-1-phenylethyl)phenyl)imidazo[1,5-a]pyrazin-3-yl)-5-azaspiro[2.4]heptan-5-yl)but-2-yn-1-one] | 1.4 | 18 | 124 | 42.3
4 | CC#CC(=O)N1C2CC[C@@H](C2)C1c1nc(-c2ccc(C(C)(O)c3ccccc3)cc2)c2c(N)nccn12 (stereo partly drawn) [Example 80] | 0.67 | 24 | 618 | 4.3
5 | C=CC(=O)N1C2CCC1(c1nc(-c3ccc(C(C)(O)c4ccccc4)cc3)c3c(N)nccn13)COC2 (stereo not drawn) [Example 84] | 4.2 | 16.3 | 48 | 6.8
6 | CC#CC(=O)N1C2CCC1(c1nc(-c3ccc(C(C)(O)c4ccccc4)cc3)c3c(N)nccn13)COC2 (stereo not drawn) [Example 85] | 0.97 | 9.4 | 96 | 18.2
7 | CC#CC(=O)N1C2C[C@@H](C1c1nc(-c3ccc(C(C)(O)c4ccccc4)cc3)c3c(N)nccn13)N(C(C)C)C2 (stereo partly drawn) [Example 91] | 0.41 | 21 | > 1000 | 1.4
8 | CC#CC(=O)N1CC2CCCC2C1c1nc(-c2ccc(Oc3ccccc3)cc2)c2c(N)nccn12 (stereo not drawn) [Example 97] | 0.4 | 2.8 | > 1000 | 6.2
9 | C=CC(=O)N1C2CCC1(c1nc(-c3ccc(Oc4ccccc4)cc3)c3c(N)nccn13)COC2 (stereo not drawn) [Example 104] | 0.42 | 4.6 | 718 | 3.6
10 | CC#CC(=O)N1C2CCC1(c1nc(-c3ccc(Oc4ccccc4)cc3)c3c(N)nccn13)COC2 (stereo not drawn) [Example 105] | 0.41 | 18 | 916 | 8.4
11 | CC#CC(=O)N1C2C[C@@H](C1c1nc(-c3ccc(Oc4ccccc4)cc3)c3c(N)nccn13)N(C(C)C)C2 (stereo partly drawn) [Example 111] | 2.1 | 30 | 672 | 4.3

The remaining compounds from weak to strong by IC50 (OCI-LY10 cells), led by results:

Row | IC50 (OCI-LY10 cells) [nM] | IC50 (BTK kinase) [nM] | SMILES | IC50 (DOHH2 cells) [nM] | IC50 (TMD8 cells) [nM]
12 | 7.4 | 4.6 | CN(C)C/C=C/C(=O)N1CC2CCCC2[C@H]1c1nc(-c2ccc(C(=O)Nc3ccccn3)cc2)c2c(N)nccn12 (stereo partly drawn) [Example 113, 4-(8-amino-3-((1S)-2-((E)-4-(dimethylamino)-2-butenoyl)octahydrocyclopenta [c]pyrrol-1-yl)imidazo[1,5-a]pyrazin-1-yl)-N-(pyridin-2-yl)benzamide] | > 1000 | 12.5
13 | 3.5 | 24 | C=CC(=O)N1CC2(CC2)C[C@H]1c1nc(-c2ccc(C(C)(O)c3ccccc3)cc2)c2c(N)nccn12 (stereo partly drawn) [Example 74, 1-((6S)-6-(8-amino-1-(4-(1-hydroxy-1-phenylethyl)phenyl)imidazo[1,5-a]pyrazin-3-yl)-5-azaspiro[2.4]heptan-5-yl)prop-2-en-1-one] | 72 | 9.7
14 | 3.2 | 2.4 | C=CC(=O)N1C2CC[C@@H](C2)C1c1nc(-c2ccc(C(=O)Nc3cc(Cl)ccn3)cc2)c2c(N)nccn12 (stereo partly drawn) [Example 70] | 677 | 6.8
15 | 2.7 | 39 | CC#CC(=O)N1C2CC[C@@H](C2)C1c1nc(-c2ccc(Oc3ccccc3)cc2)c2c(N)nccn12 (stereo partly drawn) [Example 99] | > 1000 | 5.4
16 | 2.7 | 72 | C=CC(=O)N1C2C[C@@H](C1c1nc(-c3ccc(Oc4ccccc4)cc3)c3c(N)nccn13)N(C)C2 (stereo partly drawn) [Example 108] | > 1000 | 14.3
17 | 1.4 | 12 | C=CC(=O)N1C(c2nc(-c3ccc(C(=O)Nc4cc(Cl)ccn4)cc3)c3c(N)nccn23)CC2CC21 (stereo not drawn) [Example 71] | 84 | 8.4
18 | 0.81 | 41 | CC#CC(=O)N1C2CN[C@@H](C2)C1c1nc(-c2ccc(Oc3ccccc3)cc2)c2c(N)nccn12 (stereo partly drawn) [Example 107] | 986 | 12.3
19 | 0.78 | 47 | C=CC(=O)N1C2CN[C@@H](C2)C1c1nc(-c2ccc(Oc3ccccc3)cc2)c2c(N)nccn12 (stereo partly drawn) [Example 106] | > 1000 | 21.4
20 | 0.53 | 3.6 | C=CC(=O)N1CC2(CC2)C[C@H]1c1nc(-c2ccc(Oc3ccccc3)cc2)c2c(N)nccn12 [Example 93, (S)-1-(6-(8-amino-1-(4-phenoxyphenyl)imidazo[1,5-a]pyrazin-3-yl)-5-azaspiro[2.4]heptan-5-yl)prop-2-en-1-one] | 318 | 0.65
21 | 0.41 | 21 | CN(C)C/C=C/C(=O)N1CC2(CC2)C[C@H]1c1nc(-c2ccc(C(=O)Nc3ccccn3)cc2)c2c(N)nccn12 [Example 112, (S,E)-4-(8-amino-3-(5-(4-(dimethylamino)but-2-enoyl)-5-azaspiro[2.4]heptan-6-yl)imidazo[1,5-a]pyrazin-1-yl)-N-(pyridin-2-yl)benzamide] | 902 | 0.31
22 | 0.33 | 24 | C=CC(=O)N1C2CC[C@@H](C2)C1c1nc(-c2ccc(Oc3ccccc3)cc2)c2c(N)nccn12 (stereo partly drawn) [Example 98] | > 1000 | 6.8
23 | 0.31 | 4.3 | CC#CC(=O)N1CC2(CC2)C[C@H]1c1nc(-c2ccc(Oc3ccccc3)cc2)c2c(N)nccn12 [Example 92, (S)-1-(6-(8-amino-1-(4-phenoxyphenyl)imidazo[1,5-a]pyrazin-3-yl)-5-azaspiro[2.4]heptan-5-yl) but-2-yn-1-one] | 712 | 7.6
24 | 0.31 | 19 | C=CC(=O)N1C2C[C@@H](C1c1nc(-c3ccc(Oc4ccccc4)cc3)c3c(N)nccn13)N(C(C)C)C2 (stereo partly drawn) [Example 109] | 184 | 7.2
25 | 0.26 | 8.5 | C=CC(=O)N1CC2CCCC2C1c1nc(-c2ccc(C(C)(O)c3ccccc3)cc2)c2c(N)nccn12 (stereo not drawn) [Example 77] | 212 | 2.5
26 | 0.23 | 14 | C=CC(=O)N1C2C[C@@H](C1c1nc(-c3ccc(C(C)(O)c4ccccc4)cc3)c3c(N)nccn13)N(C(C)C)C2 (stereo partly drawn) [Example 89] | 96 | 2.4
27 | 0.21 | 36 | C=CC(=O)N1C2C[C@@H](C1c1nc(-c3ccc(Oc4ccccc4)cc3)c3c(N)nccn13)N(C(C)=O)C2 (stereo partly drawn) [Example 110] | 198 | 1.2
